This passage reports EC50, Activity and inhibition results from ChEMBL document CHEMBL1157385, “(Iso)-quinoline alkaloids from fungal fruiting bodies of Cortinarius subtortus” (J Nat Prod, 2008).

In one test the test system is Colletotrichum coccodes. Kind of test: Growth inhibition of Colletotrichum coccodes (Wallr.) S. Hughes at 100 uM after 6 days. Type of test: functional, organism-based. As to conditions: 144 h.
Test [1] relates to Radical scavenging activity. Kind of test: Antioxidant activity assessed as DPPH free radical scavenging activity at 1 mM. The format is functional. Background: DPPH is a stable violet radical that fades when it is reduced.

As usually defined, the EC50 is the concentration that produces a half-maximal response. Take `Oc1cccc2cccnc12` [QUINOSOL]: a half-maximal effect in the test on Colletotrichum coccodes (EC50) was put at 0.19 µM.

Turning to `Nc1ccnc2c(C(=O)O)cc(O)cc12`, the Activity in test [1] came to 12%.

The term inhibition denotes the percentage by which the read-out fell short of the control. Low readings indicate little suppression, high ones strong suppression. Compound `O=C(O)c1cc(O)cc2cccnc12` had an inhibition at 100 µM with Colletotrichum coccodes of 71%. The Activity in test [1] was 15%.

For the compound `O=C(O)c1cc(O)cc2c(=O)[nH]ccc12`, the Activity in test [1] was found to be 21%.

As to `O=C1O[C@H]([C@@H](O)CO)C(O)=C1O` [ASCORBIC ACID], the EC50 in test [1] stood at 45 µM.
